Patent US11053204B2, “Pyrimidinyloxy benzene derivatives as herbicides” (FMC Corporation, priority 2015, dated 2021)

Experiments:
Format in all cases: in vivo
[1] = test system: Italian ryegrass (Lolium multiflorum); assay: Test A preemergence, visual injury rating; settings: for Plant response rating, Ryegrass, Italian: 31 g ai/ha, 0 to 100 scale, 0 no effect, 100 complete control; for Ryegrass, Italian plant response rating: 125 g ai/ha, 0 to 100 scale (0 no effect, 100 complete control)
Source text: (§1) Seeds of plant species selected from barnyardgrass (Echinochloa crus-galli), kochia (Kochia scoparia), ragweed (common ragweed, Ambrosia elatior), Italian ryegrass (Lolium multiflorum), large (Lg) crabgrass (Digitaria sanguinalis), giant foxtail (Setaria faberii), morningglory (Ipomoea spp.), pigweed (Amaranthus retroflexus), velvetleaf (Abutilon theophrasti), wheat (Triticum aestivum), and corn (Zea mays) were planted into a blend of loam soil and sand and treated preemergence with a directed soil spray using test chemicals formulated in a non-phytotoxic solvent mixture which included a surfactant.
(§2) At the same time, plants selected from these crop and weed species and also blackgrass (Alopecurus myosuroides), and galium (catchweed bedstraw, Galium aparine) were planted in pots containing the same blend of loam soil and sand and treated with postemergence applications of test chemicals formulated in the same manner. Plants ranged in height from 2 to 10 cm and were in the one- to two-leaf stage for the postemergence treatment. Treated plants and untreated controls were maintained in a greenhouse for approximately 10 days, after which time all treated plants were compared to untreated controls and visually evaluated for injury. Plant response ratings, summarized in Table A, are based on a 0 to 100 scale where 0 is no effect and 100 is complete control. A dash (-) response means no test result.

[2] = test system: barnyardgrass (Echinochloa crus-galli); assay: Test A preemergence, visual injury rating; settings: for Plant response rating, Barnyardgrass: 31 g ai/ha, 0 to 100 scale, 0 no effect, 100 complete control; for Barnyardgrass plant response rating: 125 g ai/ha, 0 to 100 scale (0 no effect, 100 complete control)
Source text: as §1, §2

[3] = test system: giant foxtail (Setaria faberii); assay: Test A preemergence, visual injury rating; settings: for Plant response rating, Foxtail, Giant: 31 g ai/ha, 0 to 100 scale, 0 no effect, 100 complete control; for Foxtail, Giant plant response rating: 125 g ai/ha, 0 to 100 scale (0 no effect, 100 complete control)
Source text: as §1, §2

kochia (Kochia scoparia) [4] = assay: Test A preemergence, visual injury rating; settings: for Plant response rating, Kochia: 31 g ai/ha, 0 to 100 scale, 0 no effect, 100 complete control; for Kochia plant response rating: 125 g ai/ha, 0 to 100 scale (0 no effect, 100 complete control)
Source text: as §1, §2

[5] = test system: pigweed (Amaranthus retroflexus); assay: Test A preemergence, visual injury rating; settings: for Plant response rating, Pigweed: 31 g ai/ha, 0 to 100 scale, 0 no effect, 100 complete control; for Pigweed plant response rating: 125 g ai/ha, 0 to 100 scale (0 no effect, 100 complete control)
Source text: as §1, §2

[6] = test system: ragweed (common ragweed, Ambrosia elatior); assay: Test A preemergence, visual injury rating; settings: for Plant response rating, Ragweed: 31 g ai/ha, 0 to 100 scale, 0 no effect, 100 complete control; for Ragweed plant response rating: 125 g ai/ha, 0 to 100 scale (0 no effect, 100 complete control)
Source text: as §1, §2

[7] = test system: Italian ryegrass (Lolium multiflorum); assay: Test A postemergence, visual injury rating; settings: 0 to 100 scale, 0 is no effect, 100 is complete control, approximately 10 days
Source text: as §1, §2

[8] = test system: barnyardgrass (Echinochloa crus-galli); assay: Test A postemergence, visual injury rating; settings: 0 to 100 scale, 0 is no effect, 100 is complete control, approximately 10 days
Source text: as §1, §2

[9] = test system: blackgrass (Alopecurus myosuroides); assay: Test A postemergence, visual injury rating; settings: 0 to 100 scale, 0 is no effect, 100 is complete control, approximately 10 days
Source text: as §1, §2

corn (Zea mays) = assay: Test A postemergence, visual injury rating; settings: 0 to 100 scale, 0 is no effect, 100 is complete control, approximately 10 days
Source text: as §1, §2

[10] = test system: galium (catchweed bedstraw, Galium aparine); assay: Test A postemergence, visual injury rating; settings: 0 to 100 scale, 0 is no effect, 100 is complete control, approximately 10 days
Source text: as §1, §2

[11] = test system: giant foxtail (Setaria faberii); assay: Test A postemergence, visual injury rating; settings: 0 to 100 scale, 0 is no effect, 100 is complete control, approximately 10 days
Source text: as §1, §2

kochia (Kochia scoparia) [12] = assay: Test A postemergence, visual injury rating; settings: 0 to 100 scale, 0 is no effect, 100 is complete control, approximately 10 days
Source text: as §1, §2

[13] = test system: pigweed (Amaranthus retroflexus); assay: Test A postemergence, visual injury rating; settings: 0 to 100 scale, 0 is no effect, 100 is complete control, approximately 10 days
Source text: as §1, §2

[14] = test system: ragweed (common ragweed, Ambrosia elatior); assay: Test A postemergence, visual injury rating; settings: 0 to 100 scale, 0 is no effect, 100 is complete control, approximately 10 days
Source text: as §1, §2

[15] = test system: wheat (Triticum aestivum); assay: Test A postemergence, visual injury rating; settings: 0 to 100 scale, 0 is no effect, 100 is complete control, approximately 10 days
Source text: as §1, §2

[16] = test system: barnyardgrass (Echinochloa crus-galli); assay: Test B flooded paddy test, plant response rating; settings: 250 g ai/ha; Flood; scale of 0 to 100 where 0 is no effect and 100 is complete control; 13 to 15 days
Source text: (§3) At time of treatment, test pots were flooded to 3 cm above the soil surface, treated by application of test compounds directly to the paddy water, and then maintained at that water depth for the duration of the test. Treated plants and controls were maintained in a greenhouse for 13 to 15 days, after which time all species were compared to controls and visually evaluated. […] A dash (-) response means no test result.

[17] = test system: ducksalad (Heteranthera limosa); assay: Test B flooded paddy test, plant response rating; settings: 250 g ai/ha; Flood; scale of 0 to 100 where 0 is no effect and 100 is complete control; 13 to 15 days
Source text: as §3

rice (Oryza sativa) = assay: Test B flooded paddy test, plant response rating; settings: 250 g ai/ha; Flood; scale of 0 to 100 where 0 is no effect and 100 is complete control; 13 to 15 days
Source text: as §3

[18] = test system: sedge, umbrella (small-flower umbrella sedge, Cyperus difformis); assay: Test B flooded paddy test, plant response rating; settings: 250 g ai/ha; Flood; scale of 0 to 100 where 0 is no effect and 100 is complete control; 13 to 15 days
Source text: as §3

| Structure (SMILES) | Plant response rating, Ryegrass, Italian [1] | Ryegrass, Italian plant response rating [1] | Plant response rating, Barnyardgrass [2] | Barnyardgrass plant response rating [2] | Plant response rating, Foxtail, Giant [3] | Foxtail, Giant plant response rating [3] | Plant response rating, Kochia (kochia (Kochia scoparia) [4]) | Kochia plant response rating (kochia (Kochia scoparia) [4]) | Plant response rating, Pigweed [5] | Pigweed plant response rating [5] | Plant response rating, Ragweed [6] | Ragweed plant response rating [6] | Ryegrass, Italian plant response rating ([7]; 31 g ai/ha) | Ryegrass, Italian plant response rating ([7]; 125 g ai/ha) | Barnyardgrass plant response rating ([8]; 31 g ai/ha) | Barnyardgrass plant response rating ([8]; 125 g ai/ha) | Blackgrass plant response rating ([9]; 31 g ai/ha) | Blackgrass plant response rating ([9]; 125 g ai/ha) | Corn plant response rating (corn (Zea mays); 31 g ai/ha) | Corn plant response rating (corn (Zea mays); 125 g ai/ha) | further results |
| --- | --- | --- | --- | --- | --- | --- | --- | --- | --- | --- | --- | --- | --- | --- | --- | --- | --- | --- | --- | --- | --- |
| CC(C)(C)CCOC(=O)c1c(Br)cccc1Oc1ncc(Cl)cn1 [Compound 96] | 0 | 0 | 0 | 0 | 0 | 0 | 0 | 0 | 0 | 0 | 0 | 0 | 0 | 0 | 0 | 10 | 0 | 10 | 0 | 20 | Galium plant response rating ([10]; 31 g ai/ha): 0; Galium plant response rating ([10]; 125 g ai/ha): 20; Foxtail, Giant plant response rating ([11]; 31 g ai/ha): 0; Foxtail, Giant plant response rating ([11]; 125 g ai/ha): 10; Kochia plant response rating (kochia (Kochia scoparia) [12]; 31 g ai/ha): 0; Kochia plant response rating (kochia (Kochia scoparia) [12]; 125 g ai/ha): 0; Pigweed plant response rating ([13]; 31 g ai/ha): 0; Pigweed plant response rating ([13]; 125 g ai/ha): 10; Ragweed plant response rating ([14]; 31 g ai/ha): 0; Ragweed plant response rating ([14]; 125 g ai/ha): 0; Wheat plant response rating ([15]; 31 g ai/ha): 0; Wheat plant response rating ([15]; 125 g ai/ha): 0; Plant response rating, Barnyardgrass [16]: 0; Plant response rating, Ducksalad [17]: 0; Plant response rating, Rice (rice (Oryza sativa)): 0; Plant response rating, Sedge, Umbrella [18]: 0 |
| O=C(OCCC(F)(F)F)c1cc(Cl)ccc1Oc1ncc(Cl)cn1 [Compound 88] | 0 | 0 | 0 | 0 | 0 | 0 | 0 | 0 | 0 | 0 | 0 | 0 | 0 | 0 | 0 | 0 | 0 | 0 | 0 | 0 | Galium plant response rating ([10]; 31 g ai/ha): 0; Galium plant response rating ([10]; 125 g ai/ha): 0; Foxtail, Giant plant response rating ([11]; 31 g ai/ha): 0; Foxtail, Giant plant response rating ([11]; 125 g ai/ha): 0; Kochia plant response rating (kochia (Kochia scoparia) [12]; 31 g ai/ha): 0; Kochia plant response rating (kochia (Kochia scoparia) [12]; 125 g ai/ha): 0; Pigweed plant response rating ([13]; 31 g ai/ha): 0; Pigweed plant response rating ([13]; 125 g ai/ha): 0; Ragweed plant response rating ([14]; 31 g ai/ha): 0; Ragweed plant response rating ([14]; 125 g ai/ha): 0; Wheat plant response rating ([15]; 31 g ai/ha): 0; Wheat plant response rating ([15]; 125 g ai/ha): 0; Plant response rating, Barnyardgrass [16]: 0; Plant response rating, Ducksalad [17]: 0; Plant response rating, Rice (rice (Oryza sativa)): 20; Plant response rating, Sedge, Umbrella [18]: 0 |
